Data published in paper PMC2885599 (Current Chemical Genomics, 2010).
Each block holds one compound with its values, some of them ahead of it.

Experiments:
[1] = target: phosphorylated c-Met (Homo sapiens, UniProt P08581); test: c-Met kinase HTRF assay, phosphorylated form; conditions: IC50 on the phosphorylated form
[2] = tested on: SNU5 gastric cancer cell line in which c-Met is amplified; test: SNU5 proliferation assay; assay type: cell-based; conditions: Homo sapiens, SNU-5, read-out: IC50 in SNU5 proliferation assays
[3] = target: unphosphorylated c-Met (Homo sapiens, UniProt P08581); test: c-Met kinase HTRF assay, unphosphorylated form; assay type: biochemical
Chain of unphosphorylated c-Met (P08581 956-1390 limits assumed): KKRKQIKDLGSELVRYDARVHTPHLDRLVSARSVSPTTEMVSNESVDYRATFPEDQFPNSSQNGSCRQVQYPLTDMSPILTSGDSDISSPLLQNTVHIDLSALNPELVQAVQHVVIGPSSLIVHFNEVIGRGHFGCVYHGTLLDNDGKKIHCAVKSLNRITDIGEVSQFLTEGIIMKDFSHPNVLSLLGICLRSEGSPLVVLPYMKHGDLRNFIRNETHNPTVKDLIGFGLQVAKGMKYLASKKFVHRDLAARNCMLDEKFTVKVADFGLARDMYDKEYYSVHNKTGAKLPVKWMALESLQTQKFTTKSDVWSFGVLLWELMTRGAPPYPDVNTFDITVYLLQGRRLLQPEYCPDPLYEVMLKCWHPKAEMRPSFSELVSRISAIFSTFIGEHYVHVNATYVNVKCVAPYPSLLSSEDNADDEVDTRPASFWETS

[4] = tested on: phosphorylated enzyme (c-Met); conditions: phosphorylated vs unphosphorylated enzyme; cited from earlier work
[5] = tested on: unphosphorylated Met; conditions: cited from earlier work
[6] = tested on: phosphorylated Met; conditions: read-out: IC50 on phosphorylated Met; cited from earlier work

Chain of phosphorylated c-Met (P08581 956-1390 limits assumed): as above

IC50 [1]: 275 nM
IC50 [2]: 30 nM
difference in potency, phosphorylated vs unphosphorylated form [3]: 55 fold
Compound: Cc1[nH]c(/C=C2\C(=O)Nc3ccc(S(=O)(=O)N(C)c4cccc(Cl)c4)cc32)c(C)c1C(=O)N1CCN(C)CC1 [SU11274]

Compound: CN(C[C@@H]1COCCO1)S(=O)(=O)Nc1ccc2ccc3ncc(-c4cnn(C)c4)cc3c(=O)c2c1 [MK2461]
binds to the phosphorylated enzyme tighter [4]: 6 fold

Compound: COc1cc2c(Oc3ccc(-c4cnc(Cc5ccccc5)n(C)c4=O)cc3F)ccnc2cc1OCCCN1CCOCC1 [AM7, 5-(3-fluoro-4-((6-(methyloxy)-7-((3-(4 morpholinyl)prpyl)oxy)-4-quinolinyl)oxy)phenyl)-3-methyl-2-(phenylmethyl)-4(3H)-pyrimidin-one]
fold more potent on unphosphorylated Met [5]: more than 3 fold
IC50 ([5]; read-out: IC50 on unphosphorylated Met): 5 nM
IC50 [6]: 17 nM
